This is an account of results in patent publication US8202865B2, “Oxadiazole derivatives” (Merck Serono SA, priority 2007, dated 2012).

Molecules are shown by their SMILES. Structures can show the parent of a compound that is named as a salt.

The target in the assay is T1, S1P1 (Homo sapiens, UniProt P21453).
T1 construct: expressed in transfected cells; host or cells: CHO cells (membranes)
T1 sequence (P21453 whole entry, species assumed): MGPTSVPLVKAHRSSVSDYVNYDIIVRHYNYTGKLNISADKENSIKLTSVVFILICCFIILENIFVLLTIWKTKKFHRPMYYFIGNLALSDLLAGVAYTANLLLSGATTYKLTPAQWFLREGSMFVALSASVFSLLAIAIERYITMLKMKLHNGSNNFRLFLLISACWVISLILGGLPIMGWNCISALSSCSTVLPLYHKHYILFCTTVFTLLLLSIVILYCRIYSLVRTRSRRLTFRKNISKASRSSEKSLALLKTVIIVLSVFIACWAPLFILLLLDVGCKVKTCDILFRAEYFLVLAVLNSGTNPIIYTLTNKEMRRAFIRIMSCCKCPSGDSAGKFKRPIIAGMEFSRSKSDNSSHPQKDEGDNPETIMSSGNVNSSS
Description: 35S-GTPγS binding, S1P1 membranes. The class given is biochemical. Conditions: membranes from CHO cells expressing S1P1; 60 min 30° C. An outline of the steps: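 CHO-cell membranes expressing S1P1 or S1P3 (1-10 μg) incubated with compounds in 20 mM HEPES pH 7.4, 10 mM MgCl2, 140 mM NaCl, saponin, 0.2% BSA, 1.7 μM GDP and [35S]-GTPγS (20 μl of 1.5 nM added), 60 min at 30° C. Bound radioactivity expressed as % of S1P activation.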
Regarding `COCc1cc(-c2nc(-c3cccc(C(=O)NCCC(=O)OC)c3)no2)ccc1-c1ccccc1C` [Example 132, Methyl N-(3-{5-[2-(methoxymethyl)-2′-methylbiphenyl-4-yl]-1,2,4-oxadiazol-3-yl}benzoyl)-beta-alaninate], the EC50 worked out at 2.9 nM.

In turn, `COCc1cc(-c2nc(-c3cccc(C(=O)NC4(C(=O)O)CC4)c3)no2)ccc1-c1ccccc1C` [Example 133, 1-[(3-{5-[2-(methoxymethyl)-2′-methylbiphenyl-4-yl]-1,2,4-oxadiazol-3-yl}benzoyl)amino]cyclopropanecarboxylic acid] registered an EC50 of 21.6 nM.

For the molecule `COCc1cc(-c2nc(-c3cccc(C(=O)NCC(=O)O)c3)no2)ccc1-c1ccccc1C` [Example 134, N-(3-{5-[2-(methoxymethyl)-2′-methylbiphenyl-4-yl]-1,2,4-oxadiazol-3-yl}benzoyl)glycine], the midpoint of the response, the EC50, lay at 5.1 nM.

Turning to `COCc1cc(-c2nc(-c3cccc(C(=O)NCCC(=O)O)c3)no2)ccc1-c1ccccc1C` [Example 135, N-(3-{5-[2-(methoxymethyl)-2′-methylbiphenyl-4-yl]-1,2,4-oxadiazol-3-yl}benzoyl)-beta-alanine], the EC50 came to 7.8 nM. For `COCc1cc(-c2nc(-c3cccc(C(=O)N(C)CC(=O)OC)c3)no2)ccc1-c1ccccc1C` [Example 136, Methyl N-(3-{5-[2-(methoxymethyl)-2′-methylbiphenyl-4-yl]-1,2,4-oxadiazol-3-yl}benzoyl)-N-methylglycinate] the value was 46 nM.

For `COCc1cc(-c2nc(-c3cccc(C(=O)NCCCC(=O)OC)c3)no2)ccc1-c1ccccc1C` [Example 137, Methyl 4-[(3-{5-[2-(methoxymethyl)-2′-methylbiphenyl-4-yl]-1,2,4-oxadiazol-3-yl}benzoyl)amino]butanoate], it took 25 nM to reach a half-maximal effect (EC50). For `COCc1cc(-c2nc(-c3cccc(C(=O)N(C)CC(=O)O)c3)no2)ccc1-c1ccccc1C` [Example 138, N-(3-{5-[2-(methoxymethyl)-2′-methylbiphenyl-4-yl]-1,2,4-oxadiazol-3-yl}benzoyl)-N-methylglycine] the value was 48.6 nM. For `COCc1cc(-c2nc(-c3cccc(C(=O)NCCCC(=O)O)c3)no2)ccc1-c1ccccc1C` [Example 139, 4-[(3-{5-[2-(methoxymethyl)-2′-methylbiphenyl-4-yl]-1,2,4-oxadiazol-3-yl}benzoyl)amino]butanoic acid] the value was 9.6 nM.

The molecule `CCOC(=O)C1(NCc2cccc(-c3noc(-c4ccc(-c5ccccc5C)c(COC)c4)n3)c2)CC1` [Example 140, Ethyl 1-[(3-{5-[2-(methoxymethyl)-2′-methylbiphenyl-4-yl]-1,2,4-oxadiazol-3-yl}benzyl)amino]cyclopropanecarboxylate] came in with an EC50 of 142 nM. Next, `COCc1cc(-c2nc(-c3cccc(CNCCC(=O)OC)c3)no2)ccc1-c1ccccc1C` [Example 145, Methyl N-(3-{5-[2-(methoxymethyl)-2′-methylbiphenyl-4-yl]-1,2,4-oxadiazol-3-yl}benzyl)-beta-alaninate]: 2.3 nM. For `COCc1cc(-c2nc(-c3cccc(CN(CC(=O)OC(C)(C)C)C(=O)OC(C)(C)C)c3)no2)ccc1-c1ccccc1C` [Example 149, Tert-butyl N-(tert-butoxycarbonyl)-N-(3-{5-[2-(methoxymethyl)-2′-methylbiphenyl-4-yl]-1,2,4-oxadiazol-3-yl}benzyl)glycinate] the value was 1240 nM; for `COCc1cc(-c2nc(-c3cccc(CNCCC(=O)OC(C)(C)C)c3)no2)ccc1-c1ccccc1C` [Example 153, tert-butyl N-(3-{5-[2-(methoxymethyl)-2′-methylbiphenyl-4-yl]-1,2,4-oxadiazol-3-yl}benzyl)-beta-alaninate], 25.2 nM. In turn, `COCc1cc(-c2nc(-c3ccc(F)c(CN(C)CCC(=O)O)c3)no2)ccc1-c1ccccc1C` [Example 154, N-(2-fluoro-5-{5-[2-(methoxymethyl)-2′-methylbiphenyl-4-yl]-1,2,4-oxadiazol-3-yl}benzyl)-N-methyl-beta-alanine, Hydrochloride salt] registered an EC50 of 1.2 nM. Next, `COCc1cc(-c2nc(-c3cccc(CNCCC(=O)O)c3)no2)ccc1-c1ccccc1C` [Example 155, N-(3-{5-[2-(methoxymethyl)-2′-methylbiphenyl-4-yl]-1,2,4-oxadiazol-3-yl}benzyl)-beta-alanine, Hydrochloride salt]: 0.4 nM; `CCc1ccccc1-c1ccc(-c2nc(-c3ccc(F)c(CN(C)CCC(=O)O)c3)no2)cc1COC` [Example 156, N-(5-{5-[2′-ethyl-2-(methoxymethyl)biphenyl-4-yl]-1,2,4-oxadiazol-3-yl}-2-fluorobenzyl)-N-methyl-beta-alanine, Hydrochloride salt]: 2.5 nM.

The molecule `COCc1cc(-c2nc(-c3ccc(F)c(CN(C)CCC(=O)O)c3)no2)ccc1OC(C)C` [Example 157, N-(2-fluoro-5-{5-[4-isopropoxy-3-(methoxymethyl)phenyl]-1,2,4-oxadiazol-3-yl}benzyl)-N-methyl-beta-alanine, Hydrochloride salt] yielded an EC50 of 4 nM. Against the preceding molecule, the EC50 is about 1.6-fold higher. For `COCc1cc(-c2nc(-c3ccc(F)c(CN(C)CC(=O)O)c3)no2)ccc1OC(C)C` [Example 158, N-(2-fluoro-5-{5-[4-isopropoxy-3-(methoxymethyl)phenyl]-1,2,4-oxadiazol-3-yl}benzyl)-N-methylglycine, Hydrochloride salt] the value was 10 nM; for `COCc1cc(-c2nc(-c3cccc(COCC(=O)OC)c3)no2)ccc1-c1ccccc1C` [Example 159, Methyl [(3-{5-[2-(methoxymethyl)-2′-methylbiphenyl-4-yl]-1,2,4-oxadiazol-3-yl}benzyl)oxy]acetate], 2.9 nM. For `COCc1cc(-c2nc(-c3cccc(COCC(=O)O)c3)no2)ccc1-c1ccccc1C` [Example 160, [(3-{5-[2-(methoxymethyl)-2′-methylbiphenyl-4-yl]-1,2,4-oxadiazol-3-yl}benzyl)oxy]acetic acid] the value was 0.6 nM. The molecule `COCc1cc(-c2nc(-c3cccc(CCOCC(=O)O)c3)no2)ccc1-c1ccccc1C` [Example 161, [2-(3-{5-[2-(methoxymethyl)-2′-methylbiphenyl-4-yl]-1,2,4-oxadiazol-3-yl}phenyl)ethoxy]acetic acid] displayed an EC50 of 2.1 nM. In the case of `CCc1ccccc1-c1ccc(-c2nc(-c3ccc(OCCCC(=O)O)c(F)c3)no2)cc1COC` [Example 162, 4-(4-{5-[2′-ethyl-2-(methoxymethyl)biphenyl-4-yl]-1,2,4-oxadiazol-3-yl}-2-fluorophenoxy)butanoic acid], the EC50 amounted to 5 nM. As for `CCOC(=O)CCCOc1ccc(-c2noc(-c3ccc(N4CCCCC4C)c(COC)c3)n2)cc1F` (stereo not shown) [Example 163, ethyl 4-(2-fluoro-4-{5-[3-(methoxymethyl)-4-(2-methylpiperidin-1-yl)phenyl]-1,2,4-oxadiazol-3-yl}phenoxy)butanoate], a half-maximal response (EC50) required 5.5 nM. For `COCc1cc(-c2nc(-c3cccc(OCCCC(=O)O)c3)no2)ccc1N1CCCCC1C` (stereo not shown) [Example 164, 4-(3-{5-[3-(methoxymethyl)-4-(2-methylpiperidin-1-yl)phenyl]-1,2,4-oxadiazol-3-yl}phenoxy)butanoic acid] the value was 1.5 nM; for `COCc1cc(-c2nc(-c3ccc(OCCCC(=O)O)c(F)c3)no2)ccc1N1CCCCC1C` (stereo not shown) [Example 165, 4-(2-fluoro-4-{5-[3-(methoxymethyl)-4-(2-methylpiperidin-1-yl)phenyl]-1,2,4-oxadiazol-3-yl}phenoxy)butanoic acid], 1.6 nM.

For the molecule `COCc1cc(-c2nc(-c3ccc(OCC(=O)O)c(F)c3)no2)ccc1N1CCCCC1C` (stereo not shown) [Example 169, (2-fluoro-4-{5-[3-(methoxymethyl)-4-(2-methylpiperidin-1-yl)phenyl]-1,2,4-oxadiazol-3-yl}phenoxy)acetic acid, hydrochloride salt], a half-maximal response (EC50) required 5.2 nM. This EC50 is about 3.2-fold higher than that of the molecule before. Next, `COCCNC(=O)c1ccc(-c2noc(-c3ccc(-c4ccccc4C)c(COC)c3)n2)cc1F` [Example 172, 2-fluoro-N-(2-methoxyethyl)-4-{5-[2-(methoxymethyl)-2′-methylbiphenyl-4-yl]-1,2,4-oxadiazol-3-yl}benzamide]: 33 nM; `COCc1cc(-c2nc(-c3ccc(C(=O)N4CC(F)(F)C4)c(F)c3)no2)ccc1-c1ccccc1C` [Example 175, 3-{4-[(3,3-difluoroazetidin-1-yl)carbonyl]-3-fluorophenyl}-5-[2-(methoxymethyl)-2′-methylbiphenyl-4-yl]-1,2,4-oxadiazole]: 128 nM; `CCc1cnc(CCNC(=O)c2ccc(-c3noc(-c4ccc(-c5ccccc5C)c(COC)c4)n3)cc2F)o1` [Example 176, N-[2-(5-ethyl-1,3-oxazol-2-yl)ethyl]-2-fluoro-4-{5-[2-(methoxymethyl)-2′-methylbiphenyl-4-yl]-1,2,4-oxadiazol-3-yl}benzamide]: 197 nM.

The molecule `CCc1nnn(CCNC(=O)c2ccc(-c3noc(-c4ccc(-c5ccccc5C)c(COC)c4)n3)cc2F)n1` [Example 180, N-[2-(5-ethyl-2H-tetrazol-2-yl)ethyl]-2-fluoro-4-{5-[2-(methoxymethyl)-2′-methylbiphenyl-4-yl]-1,2,4-oxadiazol-3-yl}benzamide] yielded an EC50 of 26 nM. Compared with the last molecule, the EC50 is about 7.6-fold lower. For `COCCNC(=O)c1cccc(-c2noc(-c3ccc(-c4ccccc4C)c(COC)c3)n2)c1` [Example 181, N-(2-methoxyethyl)-3-{5-[2-(methoxymethyl)-2′-methylbiphenyl-4-yl]-1,2,4-oxadiazol-3-yl}benzamide] the value was 16 nM; for `COCc1cc(-c2nc(-c3cccc(C(N)=O)c3)no2)ccc1-c1ccccc1C` [Example 182, 3-{5-[2-(methoxymethyl)-2′-methylbiphenyl-4-yl]-1,2,4-oxadiazol-3-yl}benzamide], 11 nM.

In general, EC50 refers to the concentration giving half of the maximal effect. A high value points to a need for much substance.
